Results: patent US12037322B2, “AHR agonists” (Eli Lilly and Company, priority 2021, dated 2024)

Target: T1, hAHR (Homo sapiens, UniProt P35869)
T1 construct: expressed in transfected cells
T1 sequence (P35869 11-848): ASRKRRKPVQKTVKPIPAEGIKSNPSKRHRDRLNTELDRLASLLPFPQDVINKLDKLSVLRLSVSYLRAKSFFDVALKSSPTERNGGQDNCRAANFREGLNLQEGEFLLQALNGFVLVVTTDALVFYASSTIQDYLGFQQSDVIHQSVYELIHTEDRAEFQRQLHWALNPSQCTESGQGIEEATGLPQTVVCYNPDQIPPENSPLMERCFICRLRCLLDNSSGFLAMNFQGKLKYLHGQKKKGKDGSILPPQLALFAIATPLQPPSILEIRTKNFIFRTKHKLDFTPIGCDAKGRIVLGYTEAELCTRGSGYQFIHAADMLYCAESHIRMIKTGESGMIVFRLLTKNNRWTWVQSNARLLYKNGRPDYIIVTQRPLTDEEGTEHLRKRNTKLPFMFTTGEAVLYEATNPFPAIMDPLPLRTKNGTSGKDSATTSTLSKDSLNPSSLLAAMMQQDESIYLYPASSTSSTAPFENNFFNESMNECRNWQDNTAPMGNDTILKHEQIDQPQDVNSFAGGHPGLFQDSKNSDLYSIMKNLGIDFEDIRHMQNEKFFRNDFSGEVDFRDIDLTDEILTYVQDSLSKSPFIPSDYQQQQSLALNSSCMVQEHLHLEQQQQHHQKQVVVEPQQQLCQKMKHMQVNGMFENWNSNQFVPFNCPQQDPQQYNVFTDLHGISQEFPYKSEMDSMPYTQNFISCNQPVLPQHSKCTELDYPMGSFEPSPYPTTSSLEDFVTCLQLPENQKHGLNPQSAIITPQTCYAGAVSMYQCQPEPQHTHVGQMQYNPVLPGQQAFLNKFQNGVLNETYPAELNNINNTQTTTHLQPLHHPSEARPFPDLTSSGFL
Assay: hAHR nuclear translocation assay
Format: cell-based
Conditions: Jump-In T-REx HEK293 cells expressing AhR-EGFP; 45 min incubation; ratio of EGFP intensity in nuclear over cytosol; 20-point curve
In short: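 Agonist potency derived by 4-parameter logistic fit of nuclear/cytosolic EGFP intensity ratio, imaged in fixed HEK293 cells expressing doxycycline-inducible AhR-EGFP. Cells saw compound for 45 min at 37° C in DMEM plus 0.1% BSA; 20-point twofold dilutions, 0.2% DMSO final.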

Compound | EC50
CC1CCc2c1cc(C(=O)Nc1nccc(C(F)(F)F)n1)c(=O)n2C (centres unmarked) [Example 7, 1,5-Dimethyl-2-oxo-N-[4-(trifluoromethyl)pyrimidin-2-yl]-6,7-dihydro-5H-cyclopenta[b]pyridine-3-carboxamide] | 8.26 nM
Cn1c2c(c(O)c(C(=O)Nc3ccc(F)cn3)c1=O)C(C)(C)CC2 [Example 44, N-(5-Fluoro-2-pyridyl)-4-hydroxy-1,5,5-trimethyl-2-oxo-6,7-dihydrocyclopenta[b]pyridine-3-carboxamide] | 2.38 nM
CC1CCc2c1c(O)c(C(=O)Nc1ccsn1)c(=O)n2C (single isomer, unassigned) [Example 39, 4-Hydroxy-N-isothiazol-3-yl-1,5-dimethyl-2-oxo-6,7-dihydro-5H-cyclopenta[b]pyridine-3-carboxamide] | 0.378 nM
C[C@H]1CCc2c1cc(C(=O)Nc1ncco1)c(=O)n2C [Example 75, (5S)-1,5-Dimethyl-N-oxazol-2-yl-2-oxo-6,7-dihydro-5H-cyclopenta[b]pyridine-3-carboxamide] | 17.7 nM
Cn1c2c(cc(C(=O)Nc3ccc(F)cn3)c1=O)CC(C)(C)CC2 [Example 49, N-(5-Fluoro-2-pyridyl)-1,6,6-trimethyl-2-oxo-7,8-dihydro-5H-quinoline-3-carboxamide] | 2.03 nM
CC(C)C1CCc2c1cc(C(=O)Nc1ncc(F)cn1)c(=O)n2C (single isomer, unassigned) [Example 113, N-(5-fluoropyrimidin-2-yl)-5-isopropyl-1-methyl-2-oxo-6,7-dihydro-5H-cyclopenta[b]pyridine-3-carboxamide] | 11.2 nM
C[C@H]1CCc2c1cc(C(=O)Nc1ccsn1)c(=O)n2C [Example 19, (5S)-N-Isothiazol-3-yl-1,5-dimethyl-2-oxo-6,7-dihydro-5H-cyclopenta[b]pyridine-3-carboxamide] | 1.04 nM
C[C@@H]1CCc2c1c(O)c(C(=O)Nc1ncccn1)c(=O)n2C (single isomer, unassigned) [Example 86, 4-Hydroxy-1,5-dimethyl-2-oxo-N-pyrimidin-2-yl-6,7-dihydro-5H-cyclopenta[b]pyridine-3-carboxamide] | 7.79 nM
CC1Cc2c(O)c(C(=O)Nc3ncccn3)c(=O)n(C)c2C1 (single isomer, unassigned) [Example 84, 4-Hydroxy-1,6-dimethyl-2-oxo-N-pyrimidin-2-yl-6,7-dihydro-5H-cyclopenta[b]pyridine-3-carboxamide] | 8.67 nM
CC1CCc2c1c(O)c(C(=O)Nc1ccc(F)cn1)c(=O)n2C (single isomer, unassigned) [Example 100, N-(5-Fluoro-2-pyridyl)-4-hydroxy-1,5-dimethyl-2-oxo-6,7-dihydro-5H-cyclopenta[b]pyridine-3-carboxamide] | 2.17 nM
Cn1c2c(cc(C(=O)Nc3ccccc3)c1=O)CC(C)(C)CC2 [Example 105, 1,6,6-Trimethyl-2-oxo-N-phenyl-7,8-dihydro-5H-quinoline-3-carboxamide] | 0.64 nM
CC1CCc2c1cc(C(=O)Nc1nccs1)c(=O)n2C (centres unmarked) [Example 15, 1,5-Dimethyl-2-oxo-N-thiazol-2-yl-6,7-dihydro-5H-cyclopenta[b]pyridine-3-carboxamide] | 1.93 nM
CC1Cc2c(O)c(C(=O)Nc3ncccn3)c(=O)n(C)c2C1 (single isomer, unassigned) [Example 83, 4-Hydroxy-1,6-dimethyl-2-oxo-N-pyrimidin-2-yl-6,7-dihydro-5H-cyclopenta[b]pyridine-3-carboxamide] | 233 nM
CC1CCc2c1cc(C(=O)Nc1ccc(F)cn1)c(=O)n2C (centres unmarked) [Example 2, N-(5-Fluoro-2-pyridyl)-1,5-dimethyl-2-oxo-6,7-dihydro-5H-cyclopenta[b]pyridine-3-carboxamide] | 9.78 nM
CC1CCc2c1cc(C(=O)Nc1ncc(C(F)(F)F)cn1)c(=O)n2C (centres unmarked) [Example 8, 1,5-Dimethyl-2-oxo-N-[5-(trifluoromethyl)pyrimidin-2-yl]-6,7-dihydro-5H-cyclopenta[b]pyridine-3-carboxamide] | 1.42 nM
CC1Cc2cc(C(=O)Nc3ncccn3)c(=O)n(C)c2C1 (centres unmarked) [Example 79, 1,6-Dimethyl-2-oxo-N-pyrimidin-2-yl-6,7-dihydro-5H-cyclopenta[b]pyridine-3-carboxamide] | 20.3 nM
C[C@H]1CCc2c1cc(C(=O)Nc1ncc(Cl)cn1)c(=O)n2C [Example 24, (5S)-N-(5-Chloropyrimidin-2-yl)-1,5-dimethyl-2-oxo-6,7-dihydro-5H-cyclopenta[b]pyridine-3-carboxamide] | 2.45 nM
C[C@@H]1CCc2c1cc(C(=O)Nc1ncc(F)cn1)c(=O)n2C [Example 12, (5R)-N-(5-Fluoropyrimidin-2-yl)-1,5-dimethyl-2-oxo-6,7-dihydro-5H-cyclopenta[b]pyridine-3-carboxamide] | 7.9 nM
CC1CCc2c1cc(C(=O)Nc1nccs1)c(=O)n2C (single isomer, unassigned) [Example 63, 1,5-Dimethyl-2-oxo-N-thiazol-2-yl-6,7-dihydro-5H-cyclopenta[b]pyridine-3-carboxamide] | 2.55 nM
C[C@H]1CCc2c1cc(C(=O)Nc1cnsc1)c(=O)n2C [Example 21, (5S)-N-Isothiazol-4-yl-1,5-dimethyl-2-oxo-6,7-dihydro-5H-cyclopenta[b]pyridine-3-carboxamide] | 4.72 nM
CC1CCc2c1c(O)c(C(=O)Nc1ncco1)c(=O)n2C (single isomer, unassigned) [Example 35, 4-Hydroxy-1,5-dimethyl-N-oxazol-2-yl-2-oxo-6,7-dihydro-5H-cyclopenta[b]pyridine-3-carboxamide] | 4.42 nM

Continued by falling EC50, values first:

EC50 | Compound
108 nM | CCN1CCc2c(cc(C(=O)Nc3ccccc3)c(=O)n2C)C1 [Example 107, 6-Ethyl-1-methyl-2-oxo-N-phenyl-7,8-dihydro-5H-1,6-naphthyridine-3-carboxamide]
27.3 nM | CC1Cc2c(O)c(C(=O)Nc3ccccn3)c(=O)n(C)c2C1 (single isomer, unassigned) [Example 87, 4-Hydroxy-1,6-dimethyl-2-oxo-N-(2-pyridyl)-6,7-dihydro-5H-cyclopenta[b]pyridine-3-carboxamide]
27 nM | Cn1c2c(cc(C(=O)Nc3ncccn3)c1=O)CCCC2 [Example 103, 1-Methyl-2-oxo-N-pyrimidin-2-yl-5,6,7,8-tetrahydroquinoline-3-carboxamide]
26.8 nM | Cn1c2c(cc(C(=O)Nc3ncc(F)cn3)c1=O)C(C)(C)CC2 [Example 14, N-(5-Fluoropyrimidin-2-yl)-1,5,5-trimethyl-2-oxo-6,7-dihydrocyclopenta[b]pyridine-3-carboxamide]
13.7 nM | C[C@H]1CCc2c1cc(C(=O)Nc1nnc(C(F)(F)F)s1)c(=O)n2C [Example 10, (5S)-1,5-Dimethyl-2-oxo-N-[5-(trifluoromethyl)-1,3,4-thiadiazol-2-yl]-6,7-dihydro-5H-cyclopenta[b]pyridine-3-carboxamide]
9.78 nM | CC1CCc2c1cc(C(=O)Nc1ncc(F)cn1)c(=O)n2C (centres unmarked) [Example 1, N-(5-Fluoropyrimidin-2-yl)-1,5-dimethyl-2-oxo-6,7-dihydro-5H-cyclopenta[b]pyridine-3-carboxamide]
6.4 nM | CC1CCc2cc(C(=O)Nc3ccccc3)c(=O)n(C)c21 (centres unmarked) [Example 52, 1,7-Dimethyl-2-oxo-N-phenyl-6,7-dihydro-5H-cyclopenta[b]pyridine-3-carboxamide]
2.64 nM | CC1CCc2c1c(O)c(C(=O)Nc1ccc(C(F)(F)F)cn1)c(=O)n2C (centres unmarked) [Example 33, 4-Hydroxy-1,5-dimethyl-2-oxo-N-[5-(trifluoromethyl)-2-pyridyl]-6,7-dihydro-5H-cyclopenta[b]pyridine-3-carboxamide]
2.4 nM | CC1CCc2c1c(O)c(C(=O)Nc1nccc(C(F)(F)F)n1)c(=O)n2C (centres unmarked) [Example 31, 4-Hydroxy-1,5-dimethyl-2-oxo-N-[4-(trifluoromethyl)pyrimidin-2-yl]-6,7-dihydro-5H-cyclopenta[b]pyridine-3-carboxamide]
1.32 nM | C[C@@H]1CCc2c1cc(C(=O)Nc1ccsn1)c(=O)n2C [Example 18, (5R)-N-Isothiazol-3-yl-1,5-dimethyl-2-oxo-6,7-dihydro-5H-cyclopenta[b]pyridine-3-carboxamide]
0.709 nM | CC1CCc2c1c(O)c(C(=O)Nc1ncc(C(F)(F)F)cn1)c(=O)n2C (single isomer, unassigned) [Example 97, 4-Hydroxy-1,5-dimethyl-2-oxo-N-[5-(trifluoromethyl)pyrimidin-2-yl]-6,7-dihydro-5H-cyclopenta[b]pyridine-3-carboxamide]
